According to patent US6046171A, “6,11-bridged erythromycin derivatives” (priority 1998, dated 2000):
In brackets after ≈: the same amount, converted by molar mass.

Experiments:
Format in all cases: cell-based
[1] = system: Enterococcus faecium ATCC 8Q43; experiment: in vitro antibacterial MIC, agar dilution; conditions: organism code II; 35-37° C., 20 to 24 hours; unit assumed
Procedure: (§1) Representative compounds of the present invention were assayed in vitro for antibacterial activity as follows: Twelve petri dishes containing successive aqueous dilutions of the test compound mixed with 10 mL of sterilized Brain Heart Infusion (BHI) agar (Difco 0418-01-5) were prepared. Each plate was inoculated with 1:100 (or 1:10 for slow-growing strains, such as Micrococcus and Streptococcus) dilutions of up to 32 different microorganisms, using a Steers replicator block. […] In addition, a control plate, using BHI agar containing no test compound, was prepared and incubated at the beginning and end of each test.
(§2) An additional plate containing a compound having known susceptibility patterns for the organisms being tested and belonging to the same antibiotic class as the test compound was also prepared and incubated as a further control, as well as to provide test-to-test comparability.
(§3) After incubation, each plate was visually inspected. The minimum inhibitory concentration (MIC) was defined as the lowest concentration of drug yielding no growth, a slight haze, or sparsely isolated colonies on the inoculum spot as compared to the growth control.

Escherichia coli SS = experiment: in vitro antibacterial MIC, agar dilution; conditions: organism code RR; 35-37° C., 20 to 24 hours; unit assumed
Procedure: as §1, §2, §3

[2] = system: Haemophilis Influenzae DILL AMP R; experiment: in vitro antibacterial MIC, agar dilution; conditions: organism code WW; 35-37° C., 20 to 24 hours; unit assumed
Procedure: as §1, §2, §3

[3] = system: Streptococcus Pheumoniae 5649; experiment: in vitro antibacterial MIC, agar dilution; conditions: organism code ZZA; 35-37° C., 20 to 24 hours; unit assumed
Procedure: as §1, §2, §3

[4] = system: Streptococcus Pheumoniae 5979; experiment: in vitro antibacterial MIC, agar dilution; conditions: organism code ZZ; 35-37° C., 20 to 24 hours; unit assumed
Procedure: as §1, §2, §3

[5] = system: Staphylococcus aureus ATCC 6538P; experiment: in vitro antibacterial MIC, agar dilution (BHI agar, Steers replicator); conditions: organism code AA; 35-37° C., 20 to 24 hours; unit assumed
Procedure: as §1, §2, §3

[6] = system: Micrococcus luteus ATCC 4698; experiment: in vitro antibacterial MIC, agar dilution; conditions: organism code PP; 35-37° C., 20 to 24 hours; unit assumed
Procedure: as §1, §2, §3

[7] = system: Micrococcus luteus ATCC 9341; experiment: in vitro antibacterial MIC, agar dilution; conditions: organism code OO; 35-37° C., 20 to 24 hours; unit assumed
Procedure: as §1, §2, §3

[8] = system: Mycobacterium smegmatis ATCC 114; experiment: in vitro antibacterial MIC, agar dilution; conditions: organism code UU; 35-37° C., 20 to 24 hours; unit assumed
Procedure: as §1, §2, §3

[9] = system: Nocardia Asteroides ATCC9970; experiment: in vitro antibacterial MIC, agar dilution; conditions: organism code VV; 35-37° C., 20 to 24 hours; unit assumed
Procedure: as §1, §2, §3

[10] = system: Staphylococcus aureus A5177; experiment: in vitro antibacterial MIC, agar dilution; conditions: organism code BB; 35-37° C., 20 to 24 hours; unit assumed
Procedure: as §1, §2, §3

[11] = system: Staphylococcus aureus CMX 553; experiment: in vitro antibacterial MIC, agar dilution; conditions: organism code FF; 35-37° C., 20 to 24 hours; unit assumed
Procedure: as §1, §2, §3

[12] = system: Staphylococcus aureus CMX 642A; experiment: in vitro antibacterial MIC, agar dilution; conditions: organism code DD; 35-37° C., 20 to 24 hours; unit assumed
Procedure: as §1, §2, §3

[13] = system: Staphylococcus aureus NCTC10649M; experiment: in vitro antibacterial MIC, agar dilution; conditions: organism code EE; 35-37° C., 20 to 24 hours; unit assumed
Procedure: as §1, §2, §3

[14] = system: Staphylococcus epidermidis 3519; experiment: in vitro antibacterial MIC, agar dilution; conditions: organism code HH; 35-37° C., 20 to 24 hours; unit assumed
Procedure: as §1, §2, §3

[15] = system: Streptococcus agalactiae CMX 508; experiment: in vitro antibacterial MIC, agar dilution; conditions: organism code KK; 35-37° C., 20 to 24 hours; unit assumed
Procedure: as §1, §2, §3

[16] = system: Streptococcus bovis A-5169; experiment: in vitro antibacterial MIC, agar dilution; conditions: organism code JJ; 35-37° C., 20 to 24 hours; unit assumed
Procedure: as §1, §2, §3

[17] = system: Streptococcus pyogenes EES61; experiment: in vitro antibacterial MIC, agar dilution; conditions: organism code LL; 35-37° C., 20 to 24 hours; unit assumed
Procedure: as §1, §2, §3

[18] = system: Streptococcus pyogenes PIU 2548; experiment: in vitro antibacterial MIC, agar dilution; conditions: organism code NN; 35-37° C., 20 to 24 hours; unit assumed
Procedure: as §1, §2, §3

[19] = system: Streptococcus Pheumoniae ATCC6303; experiment: in vitro antibacterial MIC, agar dilution; conditions: organism code XX; 35-37° C., 20 to 24 hours; unit assumed
Procedure: as §1, §2, §3

Structure (SMILES)	MIC [1] [µg/mL]	MIC (Escherichia coli SS) [µg/mL]	MIC [2] [µg/mL]	MIC [3] [µg/mL]	MIC [4] [µg/mL]	MIC [5] [µg/mL]	MIC [6] [µg/mL]	MIC [7] [µg/mL]	MIC [8] [µg/mL]	MIC [9] [µg/mL]	MIC [10] [µg/mL]	MIC [11] [µg/mL]	MIC [12] [µg/mL]	MIC [13] [µg/mL]	MIC [14] [µg/mL]	MIC [15] [µg/mL]	MIC [16] [µg/mL]	MIC [17] [µg/mL]	MIC [18] [µg/mL]	MIC [19] [µg/mL]
CC[C@H]1OC(=O)[C@H](C)[C@@H](O[C@H]2C[C@@](C)(OC)[C@@H](O)[C@H](C)O2)[C@H](C)[C@@H](O[C@@H]2O[C@H](C)C[C@H](N(C)C)[C@H]2O)[C@@]2(C)C[C@@H](C)C(=O)[C@H](C)[C@H]3N(CCNCc4cccc(c4)C=CCO2)C(=O)O[C@]13C [Example 11]	0.2 (≈ 0.215 µM)	6.2 (≈ 6.67 µM)	32 (≈ 34.4 µM)	32 (≈ 34.4 µM)	> 128															
CC[C@H]1OC(=O)[C@H](C)C(=O)[C@H](C)[C@@H](O[C@@H]2O[C@H](C)C[C@H](N(C)C)[C@H]2O)[C@@]2(C)C[C@@H](C)C(=O)[C@H](C)[C@H]3N(CC=CCO2)C(=O)O[C@]13C [Example 16]	0.2 (≈ 0.307 µM)	0.78 (≈ 1.2 µM)	32 (≈ 49.2 µM)		> 128	0.39 (≈ 0.599 µM)	0.39 (≈ 0.599 µM)	0.2 (≈ 0.307 µM)	6.2 (≈ 9.53 µM)	0.39 (≈ 0.599 µM)	0.39 (≈ 0.599 µM)	0.39 (≈ 0.599 µM)	0.39 (≈ 0.599 µM)	0.39 (≈ 0.599 µM)	0.39 (≈ 0.599 µM)	0.2 (≈ 0.307 µM)	0.2 (≈ 0.307 µM)	0.2 (≈ 0.307 µM)	0.39 (≈ 0.599 µM)	
CC[C@H]1OC(=O)[C@H](C)C(=O)[C@H](C)[C@@H](O[C@@H]2O[C@H](C)C[C@H](N(C)C)[C@H]2O)[C@@]2(C)C[C@@H](C)C(=O)[C@H](C)[C@H]3N(CCC=CCO2)C(=O)O[C@]13C [Example 18]	0.39 (≈ 0.587 µM)		128 (≈ 193 µM)	2 (≈ 3.01 µM)	> 128	0.78 (≈ 1.17 µM)	0.78 (≈ 1.17 µM)	0.39 (≈ 0.587 µM)		0.78 (≈ 1.17 µM)	0.78 (≈ 1.17 µM)	0.78 (≈ 1.17 µM)	0.78 (≈ 1.17 µM)	0.78 (≈ 1.17 µM)		0.2 (≈ 0.301 µM)	0.2 (≈ 0.301 µM)	0.2 (≈ 0.301 µM)		1 (≈ 1.5 µM)
CC[C@H]1OC(=O)[C@H](C)[C@@H](O[C@H]2C[C@@](C)(OC)[C@@H](O)[C@H](C)O2)[C@H](C)[C@@H](O[C@@H]2O[C@H](C)C[C@H](N(C)C)[C@H]2O)[C@@]2(C)C[C@@H](C)C(=O)[C@H](C)[C@H]3N(CCCCO2)C(=O)O[C@]13C [Example 15]	0.1 (≈ 0.123 µM)		32 (≈ 39.4 µM)	16 (≈ 19.7 µM)	> 128												0.05 (≈ 0.0615 µM)			
CC[C@H]1OC(=O)[C@H](C)[C@@H](O[C@H]2C[C@@](C)(OC)[C@@H](O)[C@H](C)O2)[C@H](C)[C@@H](O[C@@H]2O[C@H](C)C[C@H](N(C)C)[C@H]2O)[C@@]2(C)C[C@@H](C)C(=O)[C@H](C)[C@H]3N(CC(O)CC=CCO2)C(=O)O[C@]13C (stereo partly drawn) [Example 19]	0.1 (≈ 0.117 µM)		8 (≈ 9.36 µM)	16 (≈ 18.7 µM)	> 128			0.05 (≈ 0.0585 µM)		0.05 (≈ 0.0585 µM)						0.05 (≈ 0.0585 µM)	0.02 (≈ 0.0234 µM)	0.05 (≈ 0.0585 µM)	12.5 (≈ 14.6 µM)	
